The values that follow come from patent US20230117034A1, “PYRAZOLOTRIAZINES” (Bayer Aktiengesellschaft, priority 2019, published 2023).

In one experiment the target is CDK12/CycK (Homo sapiens, UniProt Q9NYV4). Description: CDK12/CycK high ATP kinase assay (TR-FRET, 2 mM ATP). It counts as biochemical. The note with it: 2 mM ATP (high ATP); median; read-out: CDK12/CyclinK, 2 mM ATP (high ATP), IC50-[mol/l] (median). The method in brief: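 His-tagged human CDK12/CycK (~0.75 nM) pre-incubated 15 min with compound, then 60 min at 22 °C with 2 mM ATP and 1 µM biotinylated peptide (HEPES pH 7.5, 20 mM MgCl2). EDTA stop; phospho-Ser62 antibody/Eu anti-rabbit and streptavidin-XL665 TR-FRET, 665/620 nm ratio normalised to give IC50.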
CDK12/CycK, sequence (Q9NYV4 with tags, fused parts or gaps): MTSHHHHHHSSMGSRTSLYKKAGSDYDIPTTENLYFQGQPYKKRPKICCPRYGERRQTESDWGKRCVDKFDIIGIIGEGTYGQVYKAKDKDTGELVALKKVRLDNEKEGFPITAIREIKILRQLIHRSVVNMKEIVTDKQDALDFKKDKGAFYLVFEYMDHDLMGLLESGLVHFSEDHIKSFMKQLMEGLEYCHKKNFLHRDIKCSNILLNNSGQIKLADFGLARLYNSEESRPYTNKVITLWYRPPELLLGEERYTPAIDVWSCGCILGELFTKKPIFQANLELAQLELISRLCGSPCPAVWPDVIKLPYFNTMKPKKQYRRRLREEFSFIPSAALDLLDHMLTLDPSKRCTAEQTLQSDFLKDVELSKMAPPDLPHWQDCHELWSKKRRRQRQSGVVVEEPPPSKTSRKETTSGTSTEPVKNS
CDK12/CycK, sequence (O75909 1-300 partner limits assumed): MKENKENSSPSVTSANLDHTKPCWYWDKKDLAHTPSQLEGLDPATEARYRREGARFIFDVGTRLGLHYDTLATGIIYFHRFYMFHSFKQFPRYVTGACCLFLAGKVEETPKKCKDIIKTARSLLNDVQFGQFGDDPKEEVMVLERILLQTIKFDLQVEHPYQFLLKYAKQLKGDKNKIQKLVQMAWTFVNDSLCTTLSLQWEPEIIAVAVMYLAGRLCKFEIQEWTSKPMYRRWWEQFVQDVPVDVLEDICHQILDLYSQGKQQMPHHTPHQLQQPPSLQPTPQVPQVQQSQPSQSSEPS
(In general: Time-resolved FRET reads energy transfer from a long-lived donor to a nearby acceptor.)

The next experiment has as its target T1, CDK9/CycT1 (Homo sapiens, UniProt P50750).
T1 construct: Recombinant full-length His-tagged human CDK9 and CycT1; purchased Life Technologies PV4131; host or cells: insect cells
The experiment can be described thus: CDK9/CycT1 high ATP kinase assay (TR-FRET, 2 mM ATP). It counts as biochemical. To be noted: 2 mM ATP (high ATP); median; read-out: CDK9/CyclinT1, 2 mM ATP (high ATP), IC50 (median). The procedure, abridged: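 Full-length His-tagged human CDK9/CycT1 (insect cell, ~0.5 μg/mL) preincubated 15 min at 22 °C with compound in Tris pH 8.0, MgCl2, DTT buffer before reaction with biotinylated peptide substrate at high ATP (2 mM).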

T1 sequence (P50750 whole entry): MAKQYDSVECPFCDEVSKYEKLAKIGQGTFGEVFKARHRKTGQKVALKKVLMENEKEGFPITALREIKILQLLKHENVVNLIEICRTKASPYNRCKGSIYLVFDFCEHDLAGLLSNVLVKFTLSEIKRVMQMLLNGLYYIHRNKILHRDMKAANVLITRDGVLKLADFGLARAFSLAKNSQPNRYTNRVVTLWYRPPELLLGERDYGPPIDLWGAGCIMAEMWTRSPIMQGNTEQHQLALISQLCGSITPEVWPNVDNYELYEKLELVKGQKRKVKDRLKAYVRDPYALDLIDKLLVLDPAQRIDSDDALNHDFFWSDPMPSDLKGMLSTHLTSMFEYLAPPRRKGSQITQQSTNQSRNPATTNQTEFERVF
T1 sequence (O60563 whole entry partner): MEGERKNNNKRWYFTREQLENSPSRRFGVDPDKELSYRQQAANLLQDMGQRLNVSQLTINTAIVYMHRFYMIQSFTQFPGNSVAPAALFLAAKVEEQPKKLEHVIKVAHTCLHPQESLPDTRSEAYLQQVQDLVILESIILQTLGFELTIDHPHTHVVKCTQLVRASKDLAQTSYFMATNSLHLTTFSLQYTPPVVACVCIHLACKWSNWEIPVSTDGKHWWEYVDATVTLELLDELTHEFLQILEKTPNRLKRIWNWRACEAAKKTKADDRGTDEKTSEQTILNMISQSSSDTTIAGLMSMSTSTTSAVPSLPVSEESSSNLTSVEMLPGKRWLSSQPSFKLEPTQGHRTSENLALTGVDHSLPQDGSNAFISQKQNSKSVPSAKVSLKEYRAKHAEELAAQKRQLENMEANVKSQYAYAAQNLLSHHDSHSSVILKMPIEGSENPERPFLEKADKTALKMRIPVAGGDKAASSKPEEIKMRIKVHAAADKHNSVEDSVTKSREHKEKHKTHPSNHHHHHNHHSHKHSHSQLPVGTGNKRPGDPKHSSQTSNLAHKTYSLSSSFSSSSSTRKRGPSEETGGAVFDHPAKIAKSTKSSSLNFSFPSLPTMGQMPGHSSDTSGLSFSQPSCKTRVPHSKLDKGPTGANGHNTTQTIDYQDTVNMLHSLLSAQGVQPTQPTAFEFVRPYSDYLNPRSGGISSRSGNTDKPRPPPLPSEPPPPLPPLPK

In the case of `Fc1cccc2[nH]c(CNc3nc(N4C[C@@H]5CCCN[C@@H]5C4)nc4c(C5CC5)cnn34)nc12` [Example 187, 8-cyclopropyl-N-[(4-fluoro-1H-benzimidazol-2-yl)methyl]-2-[(4aS,7aS)-octahydro-6H-pyrrolo[3,4-b]pyridin-6-yl]pyrazolo[1,5-a][1,3,5]triazin-4-amine], the IC50 was 6.5 µM on CDK12/CycK and > 20 µM at CDK9/CycT1.
For `Fc1ccc2[nH]c(CNc3nc(N4C[C@@H]5C[C@H]4CO5)nc4c(C5CC5)cnn34)nc2c1` [Example 185, 8-cyclopropyl-N-[(5-fluoro-1H-benzimidazol-2-yl)methyl]-2-[(1S,4S)-2-oxa-5-azabicyclo[2.2.1]heptan-5-yl]pyrazolo[1,5-a][1,3,5]triazin-4-amine], the IC50 is > 19.6 µM on CDK12/CycK and > 20 µM on CDK9/CycT1.
Take `COc1cccc2[nH]c(CNc3nc(N4C[C@@H](C)N[C@@H](C)C4)nc4c(C5CC5)cnn34)nc12` [Example 212, 8-cyclopropyl-2-[(3R,5S)-3,5-dimethylpiperazin-1-yl]-N-[(4-methoxy-1H-benzimidazol-2-yl)methyl]pyrazolo[1,5-a][1,3,5]triazin-4-amine]: the IC50 at CDK12/CycK was 4.15 µM; at CDK9/CycT1, > 20 µM.
Take `Brc1cnn2c(NCc3nc4ccccc4[nH]3)nc(N3CCNC4(CC4)C3)nc12` [Example 176, N-[(1H-benzimidazol-2-yl)methyl]-8-bromo-2-(4,7-diazaspiro[2.5]octan-7-yl)pyrazolo[1,5-a][1,3,5]triazin-4-amine]: the IC50 at CDK12/CycK is 2.33 µM; at CDK9/CycT1, > 20 µM.
Take `C[C@@H]1CN(c2nc(NCc3nc4cc(F)ccc4[nH]3)n3ncc(C4CC4)c3n2)C[C@H](C)N1` [Example 175, 8-cyclopropyl-2-[(3R,5S)-3,5-dimethylpiperazin-1-yl]-N-[(5-fluoro-1H-benzimidazol-2-yl)methyl]pyrazolo[1,5-a][1,3,5]triazin-4-amine]: the IC50 was 11 µM at CDK12/CycK and > 20 µM on CDK9/CycT1.
Turning to `OC[C@@H]1CCCCN1c1nc(NCc2nc3c(F)cccc3[nH]2)n2ncc(C3CC3)c2n1` [Example 189, [(2S)-1-(8-cyclopropyl-4-{[(4-fluoro-1H-benzimidazol-2-yl)methyl]amino}pyrazolo[1,5-a][1,3,5]triazin-2-yl)piperidin-2-yl]methanol], the IC50 on CDK12/CycK worked out at 0.0109 µM; at CDK9/CycT1, 2.2 µM.
On to `Brc1cnn2c(NCc3nc4ccccc4[nH]3)nc(N3CC4CCC(C3)N4)nc12` [Example 232, N-(1H-benzimidazol-2-ylmethyl)-8-bromo-2-(3,8-diazabicyclo[3.2.1]octan-3-yl)pyrazolo[1,5-a][1,3,5]triazin-4-amine], for which the IC50 at CDK12/CycK is 5.28 µM; on CDK9/CycT1, > 20 µM.
As for `O=C1CN(c2nc(NCc3nc4ccccc4[nH]3)n3ncc(Br)c3n2)CCN1` [Example 167, 4-(4-{[(1H-benzimidazol-2-yl)methyl]amino}-8-bromopyrazolo[1,5-a][1,3,5]triazin-2-yl)piperazin-2-one], the figures for the IC50 at CDK12/CycK and on CDK9/CycT1 were 7.12 µM and > 20 µM, respectively.
Take `CC(C)c1cnn2c(NCc3nc4ccccc4[nH]3)nc(Nc3ccccc3)nc12` [Example 13, N^4-[(1H-benzimidazol-2-yl)methyl]-N^2-phenyl-8-(propan-2-yl)pyrazolo[1,5-a][1,3,5]triazine-2,4-diamine]: the IC50 on CDK12/CycK and at CDK9/CycT1 was > 20 µM each time.
As to `OC1(C(F)(F)F)CCN(c2nc(NCc3nc4ccccc4[nH]3)n3ncc(Br)c3n2)C1` (stereo not drawn) [Example 200, 1-[4-(1H-benzimidazol-2-ylmethylamino)-8-bromo-pyrazolo[1,5-a][1,3,5]triazin-2-yl]-3-(trifluoromethyl)pyrrolidin-3-ol], the IC50 is 4.33 µM on CDK12/CycK and > 20 µM on CDK9/CycT1.
On to `COc1cccc2[nH]c(CNc3nc(N4CCNCC4)nc4c(C5CC5)cnn34)nc12` [Example 211, 8-cyclopropyl-N-[(4-methoxy-1H-benzimidazol-2-yl)methyl]-2-(piperazin-1-yl)pyrazolo[1,5-a][1,3,5]triazin-4-amine], for which the IC50 on CDK12/CycK is 2.74 µM; at CDK9/CycT1 it was > 20 µM.
For `CCN(C)c1nc(NCc2nc3ccccc3[nH]2)n2ncc(Br)c2n1` [Example 233, N4-(1H-benzimidazol-2-ylmethyl)-8-bromo-N2-ethyl-N2-methyl-pyrazolo[1,5-a][1,3,5]triazine-2,4-diamine], the values for the IC50 at CDK12/CycK and on CDK9/CycT1 were 7.54 µM and > 20 µM, respectively.
The matching figures for `Fc1ccc2[nH]c(CNc3nc(N4C[C@@H]5CCCN[C@@H]5C4)nc4c(C5CC5)cnn34)nc2c1F` [Example 171, 8-cyclopropyl-N-[(4,5-difluoro-1H-benzimidazol-2-yl)methyl]-2-[(4aS,7aS)-octahydro-6H-pyrrolo[3,4-b]pyridin-6-yl]pyrazolo[1,5-a][1,3,5]triazin-4-amine]: 6.56 µM and > 20 µM.
With `CC1CN(c2nc(NCc3nc4ccccc4[nH]3)n3ncc(C(C)C)c3n2)CCO1` (racemic) [Example 11, (rac)-N-[(1H-benzimidazol-2-yl)methyl]-2-[2-methylmorpholin-4-yl]-8-(propan-2-yl)pyrazolo[1,5-a][1,3,5]triazin-4-amine], the IC50 at CDK12/CycK is 3.16 µM; at CDK9/CycT1, > 20 µM.
Consider `CN(C)[C@@H]1CCN(c2nc(NCc3nc4ccccc4[nH]3)n3ncc(Br)c3n2)C1` [Example 178, N-[(1H-benzimidazol-2-yl)methyl]-8-bromo-2-[(3R)-3-(dimethylamino)pyrrolidin-1-yl]pyrazolo[1,5-a][1,3,5]triazin-4-amine], for which the IC50 on CDK12/CycK and on CDK9/CycT1 was > 20 µM each time.
